Literature values in patent US9687002B2, “Botanical antimicrobial microemulsions (BAMM)” (Indusco, Ltd., priority 2015, dated 2017).

System: various fungi that commonly infect toenails

Question: For `Cc1ccc(C(C)C)c(O)c1` [Thymol], which effectiveness against fungi is on record?
Answer: effective
